Test results from patent publication US20190247376A1, “NICOTINIC ACETYLCHOLINE RECEPTOR AGONIST ATTENUATES ILC2-DEPENDENT AIRWAY HYPERREACTIVITY” (University of Southern California, priority 2016, published 2019).

Assays:
[1] = tested on: Rag2−/− mice; experiment: Alternaria alternata-induced AHR in Rag2-deficient mice; format: in vivo, mouse; settings: four consecutive days
Text: FIGS. 6A-6C: α7nAChR agonist inhibits Alternaria-induced AHR. (FIG. 6A) Rag2-deficient mice intranasally received an extract of Alternaria alternata with or without α7nAChR agonist on days 1-4 according to scheme FIG. 6A. Measurement of lung function and BALF analysis followed on day 5. (FIG. 6B) Lung resistance. (FIG. 6C) Total number of eosinophils in BALF. Total number of lung ILC2s. Data are representative of at least four independent experiments and are presented as means±SEM (n=4; Student's t test *, p<0.05; ***, p<0.001).
It has been previously reported that Alternaria alternata can induce AHR^40. Applicants further explored the anti-inflammatory effects of α7nAChR agonist in ILC2-mediated AHR with this clinically relevant allergen. Rag2^−/− mice were i.n. administered Alternaria alternata extract with or without α7nAChR agonist for four consecutive days (FIG. 6A). […] Accordingly, the number of eosinophils in BALF and lung ILC2s were increased in Alternaria-treated mice. Meanwhile, α7nAChR agonist treatment abolished eosinophils and ILC2s in the lung (FIG. 6C).
Mice were intranasally (i.n.) administered carrier-free recombinant mouse IL-33 (BioLegend, San Diego Calif., 0.5 µg per mouse in 50 µL) with or without […] of α7nAChR agonist (kindly provided by Lin Chen) on three consecutive days. Mice were intranasally (i.n.) administered carrier-free recombinant mouse IL-25 (BioLegend, San Diego Calif., 5 µg per mouse in 50 µL) with or without […] of α7nAChR agonist on three consecutive days. For Alternaria alternata experiments, mice were i.n. administered Alternaria alternata (Greer Labs, Lenoir, N.C., 100 μg per mouse in 50 μL) with or without 125 µg α7nAChR agonist for four consecutive days. One day after the last challenge, mice were anesthetized using i.p. injection of ketamine (10 mg mL^−1) and xylazine (1 mg mL^−1). […] Maximum lung resistance (RL) and minimum compliance (Cdyn) values were recorded during a three-minute period after each methacholine challenge.

[2] = tested on: Rag2 GC double knockout mice with adoptively transferred human ILC2s; experiment: Human ILC2-mediated AHR in humanized ILC2 mice; format: in vivo, mouse; settings: i.n. IL-33, agonist three consecutive days
Method: FIGS. 7A-7E: α7nAChR agonist prevents human ILC2s mediated AHR and allergic. (FIG. 7A) Human ILC2s were purified from PBMCs via FACS and cultured (10^4 cells per mL) in the presence of recombinant human IL-33 (20 ng mL^−1), IL-2 (10 ng mL^−1), and IL-7 (20 ng mL^−1), with or without α7nAChR agonist for 24h. In the right panel, data are presented as means of four individual donors. […]
Finally, to confirm the efficacy of α7nAChR agonist treatment in human ILC2-mediated AHR, sorted human ILC2s (hILC2s) were cultured in the presence of rh-IL-2 (20 ng mL^−1) and rh-IL-7 (20 ng mL^−1) for 48 hours. […] These humanized mice were given i.n. rh-IL33 (1 μg per mice) with or without α7nAChR agonists (125 µg mL^−1) for three consecutive days, and then AHR was evaluated (FIG. 7B). […]
For human peripheral ILC2s, peripheral blood mononuclear cells (PBMCs) were first isolated from human fresh blood by diluting the blood 1:1 in PBS, adding to SepMate™-50 separation tubes (STEMCELL Technologies Inc, Vancouver, Canada) prefilled with 15-mL Lymphoprep™ each (Axis-Shield, Oslo, Norway), and centrifuging at 1200 g for 15 minutes. […] On day 4, lung function was measured and BAL was performed and analyzed.

[3] = i.n. Alternaria alternata extract, agonist

Structure (SMILES): COc1ccc(/C=C2\CCCN=C2c2cccnc2)c(OC)c1 [GTS-21, 3-[(3E)-3-[(2,4-dimethoxyphenyl)methylidene]-5,6-dihydro-4H-pyridin-2-yl]pyridine]
- AHR (lung resistance) ([1]; i.n. Alternaria alternata extract 100 μg, agonist 125 μg): did not develop AHR
- eosinophils in BALF [1, 3]: abolished
- lung ILC2s [1, 3]: abolished
- ILC2-mediated AHR (lung resistance) [2]: dampened
- allergic inflammation (eosinophils in BALF, lung ILC2s) [2]: dampened
